According to patent US20180110777A1, “METHOD FOR REGULATION OF TELOMERE LENGTH” (The Johns Hopkins University, priority 2015, published 2018):

Key:
[1] = tested on: SL13 cells; assay: Telomere Southern blot after lentiviral overexpression of mTR and mTERT; assay type: cell-based, mouse; conditions: SL13 cells transduced with lentivirus expressing mTR and mTERT; day 6
[2] = tested on: SL13 cells; assay: ADDIT assay (addition of de novo initiated telomeres; modified STELA with PacBio sequencing or Southern blot); assay type: cell-based, mouse
Text: To critically access the role of ATM, as well as other potential telomere length regulators, an assay was developed that measures telomere repeat addition in cells over 48 hr. CAST/EiJ mouse fibroblast cell line was engineered to (SL13) contain a conditional mTR allele and a modified chromosome 4 (chr4) with an internal 480 bp telomere ‘seed’ sequence followed by a unique I-Sce1 endonuclease cut site (FIG. 5 and see Experimental Procedures). The internal telomere ‘seed’ sequence can be conditionally exposed by I-Sce1 endonuclease cleavage (FIG. 1A) and then be elongated by telomerase in a manner similar to de novo telomere addition shown to occur in yeast (Diede and Gottschling, 1999, Cell 99, 723-733).
To better detect the telomere elongation, the single telomere length analysis (STELA) assay was modified (Baird et al., 2004, Hum Mol Genet 13, 1515-1524), to measure telomere length at the in vivo cut chr4. The linker, ‘telorette’, was ligated to the telomere and PCR amplified the telomere using the ‘teltail’ primer and an internal primer in the hygromycin resistance (HYG) sequence on the engineered chromosome (FIG. 1B). To determine the un-extended cut chromosome length in vitro, a different linker was designed, ‘IScerette’, which anneals to the 4-nt 3′ overhang created by the I-Sce1 endonuclease (FIG. 1B). PCR using the forward primers, F1 or F2, and the teltail generated products of predicted size on a Southern blot (data not shown).
To further verify telomere addition had occurred, the PCR products were sequenced with Pacific Biosciences (PacBio®) sequencing. PacBio® produces long sequence reads that allowed us to determine telomere length. While sequencing errors, predominantly point insertions and deletions, occurred as expected, the telomere repeats were easily recognizable. To assure products were full length, the PacBio® reads were filtered to examine only those that had the unique HYG sequence followed by the seed telomere repeat sequence and also had the ‘teltail’ primer sequence (FIG. 6). […] The I-Sce1 site is shown boxed (FIG. 1C). Three regions of variant telomere repeats were noted, evident as darker stripes in the aligned reads, that were present in the original SL13 clone, and served as useful sequence reference points (FIG. 1C). If there were degradation past these variants and then new TTAGGG (SEQ ID NO: 100) repeat synthesis in vivo, these landmarks would be removed.
The sequence length distribution in the ADDIT assay represents telomere elongation, incomplete telomere replication and in vivo end resection (as well as PacBio® sequencing errors).
Cell lines were grown in DMEM (Gibco) supplemented with 1% Penicillin/Streptomycin/Glutamine (PSG) and 10% heat inactivated FBS (Invitrogen). SL13 cells were grown in DMEM (Gibco) supplemented with 1% PSG and 10% Tet system approved FBS (Clontech, #631107). Cells were treated with ATM inhibitor KU55933 (R&D Systems, #3544), ATR inhibitor VE821 (Selleckchem, #S8007) or PARP1 inhibitor Olaparib (Selleckchem, #1060) at indicated concentrations or DMSO as a control. For the ADDIT assay, SL13 cells were treated with final concentration 2 μg/ml of doxycycline for typically 48 hr or as indicated.
The original STELA protocol used for human cells (Baird et al., 2004, Hum Mol Genet 13, 1515-1524) was modified to measure telomere lengths on the cut end of chr4 in SL13 cells. Briefly, genomic DNA was extracted using Puregene Core Kit A™ (Qiagen). 4 μg of genomic DNA was digested with Sph1 (NEB) and later diluted to 10 ng/μl in water. For the in vitro IScerette sample, genomic DNA was digested with SphI and I-SceI (NEB) prior to ligation. The ligation was carried out at 35° C. for at least 12 hr in a volume of 10 μl containing 10 ng of digested genomic DNA, 0.9 μM of telorette linkers or IScerette linker and 0.5 U of T4 DNA ligase (NEB) in 1×T4 ligation buffer. […]

CS(=O)(=O)c1ccc(-c2cnc(N)c(C(=O)Nc3ccccc3)n2)cc1 [VE821]
telomere elongation on overexpression of telomerase (Southern blot) [1]: subtle but reproducible decreased elongation at day 6

CN[C@H]1CCc2cc(OC)c(OC)c(OC)c2-c2ccc(OC)c(=O)cc21 [colcemid]
de novo telomere addition / telomere elongation in ADDIT assay (in words) ([2]; PacBio sequencing of STELA products, compared to controls): No significant difference of de novo elongation

CN1CC[C@H](c2c(O)cc(O)c3c(=O)cc(-c4ccccc4Cl)oc23)[C@H](O)C1 [flavopiridol]
percentage of reads with de novo telomere addition ([2]; 400 nM flavopiridol, 48 hrs, DMSO control 24%): less than 2% | elongation in Southern blot analysis of STELA PCR products ([2]; flavopiridol-treated sample): minimal elongation beyond the chr4 I-Sce1-induced cut base line
